Test system: GABAA receptors
Assay: Influence on the binding of muscimol to GABAA receptors (rat brain)
Settings: 5 nM [3H] muscimol, cerebral rat cortex membranes
Method: The following tests for determining the influence of allopregnanolone, 3-α-OH-CMA and 3-β-OH-CMA on the binding of muscimol to GABAA receptors (in rats) are based on the publication of the experimental specifications of Snodgrass, S. R. (Nature, 1979, V273, p. 392-394). The corresponding disclosure is included herein as a reference and is part of the disclosure of the present application.
Membrane preparations of cerebral rat cortex material were prepared. 5 nM [^3H] muscimol was used as a reference substance and 10 μM muscimol was used to determine the nonspecific binding. The substances ([^3H] muscimol, allopregnanolone) were each incubated at the receptor for 10 minutes at a temperature of approximately 4° C. The stock solution (5×10^−2 M) of allopregnanolone was prediluted in 75% DMSO at a ratio of 1:10 and was subsequently further diluted in 25% DMSO at a ratio of 1:5. The final concentration of allopregnanolone in the test was 1×10^−10 M, 1×10^−9 M, 1×10^−8 M, 1×10^−7 M, 1×10^−6 M and 1×10^−5 M respectively. The washing steps and the determination of radioactivity were carried out as previously described under point 1.
The influence of 3-α-OH-CMA and 3-β-OH-CMA on the binding of muscimol to GABAA receptors (in rats) was determined in a similar manner to the method described previously. Instead of allopregnanolone, 3-α-OH-CMA or 3-β-OH-CMA were used.

CC(=O)O[C@]1(C(C)=O)CC[C@H]2[C@@H]3C=C(Cl)C4=C[C@H](O)CC[C@]4(C)[C@H]3CC[C@@]21C [3-α-OH-CMA, 3α-hydroxy-6-chloro-17α-acetoxy-4,6-pregnadien-20-one]
increase of binding of radioactively labelled muscimol (0.001 μM test substance): 12%

CC(=O)[C@H]1CC[C@H]2[C@@H]3CC[C@H]4C[C@H](O)CC[C@]4(C)[C@H]3CC[C@]12C [allopregnanolone, reference compound]
increase of binding of radioactively labelled muscimol (1 μM test substance): 38%

CC(=O)O[C@]1(C(C)=O)CC[C@H]2[C@@H]3C=C(Cl)C4=C[C@@H](O)CC[C@]4(C)[C@H]3CC[C@@]21C [3-β-OH-CMA, 3β-hydroxy-6-chloro-17α-acetoxy-4,6-pregnadien-20-one]
increase of binding of radioactively labelled muscimol (0.1 μM test substance): 31%

Source: patent US20090023694A1, “Contraceptive” (GRUNENTHAL GMBH, priority 2006, published 2009)
